Measured values as given in PubChem BioAssay (NCI).
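Growth conditions: 96-well plates. Treatment: test compound, 48 hours, 5 concentrations. Analysis: linear interpolation between bracketing concentrations; unreached endpoints set to highest concentration. Abbreviation: GI50, concentration required for 50% inhibition of growth. TGI marks complete inhibition of growth.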

How the values were obtained:
Assay in all cases: NCI tumour cell line growth inhibition, 48 h
HT29 colon = system: HT29 colon
SK-MEL-28 melanoma = system: SK-MEL-28 melanoma
ACHN renal = system: ACHN renal
SF-268 CNS = system: SF-268 CNS
HCT-15 colon = system: HCT-15 colon
EKVX NSCLC = system: EKVX NSCLC
OVCAR-3 ovarian = system: OVCAR-3 ovarian
CAKI-1 renal = system: CAKI-1 renal
COLO 205 colon = system: COLO 205 colon
NCI-H522 lung = system: NCI-H522 lung
UO-31 renal = system: UO-31 renal
M14 melanoma = system: M14 melanoma
786-0 renal = system: 786-0 renal
SK-MEL-2 melanoma = system: SK-MEL-2 melanoma
PC-3 prostate = system: PC-3 prostate
NCI/ADR-RES ovarian = system: NCI/ADR-RES ovarian
KM12 colon = system: KM12 colon
SNB-19 CNS = system: SNB-19 CNS
A498 renal = system: A498 renal
NCI-H226 lung = system: NCI-H226 lung
MDA-MB-435 = system: MDA-MB-435
OVCAR-4 ovarian = system: OVCAR-4 ovarian
OVCAR-5 ovarian = system: OVCAR-5 ovarian
LOX IMVI melanoma = system: LOX IMVI melanoma
T-47D breast = system: T-47D breast
SF-295 CNS = system: SF-295 CNS
DU-145 prostate = system: DU-145 prostate
BT-549 breast = system: BT-549 breast
RPMI-8226 leukemia = system: RPMI-8226 leukemia
MCF7 breast = system: MCF7 breast
HOP-62 NSCLC = system: HOP-62 NSCLC
UACC-62 melanoma = system: UACC-62 melanoma
HOP-92 NSCLC = system: HOP-92 NSCLC
HCC-2998 colon = system: HCC-2998 colon
K-562 leukemia = system: K-562 leukemia
U251 CNS = system: U251 CNS
IGROV1 ovarian = system: IGROV1 ovarian
A549 NSCLC = system: A549 NSCLC
SK-MEL-5 melanoma = system: SK-MEL-5 melanoma
SF-539 CNS = system: SF-539 CNS
NCI-H460 lung = system: NCI-H460 lung
HS 578T breast = system: HS 578T breast
MALME-3M melanoma = system: MALME-3M melanoma
MOLT-4 leukemia = system: MOLT-4 leukemia
HCT-116 colon = system: HCT-116 colon
SNB-75 CNS = system: SNB-75 CNS
OVCAR-8 ovarian = system: OVCAR-8 ovarian
SN12C renal = system: SN12C renal
RXF 393 renal = system: RXF 393 renal
SK-OV-3 ovarian = system: SK-OV-3 ovarian
SW-620 colon = system: SW-620 colon
NCI-H23 lung = system: NCI-H23 lung
UACC-257 melanoma = system: UACC-257 melanoma
SR leukemia = system: SR leukemia
HL-60(TB) leukemia = system: HL-60(TB) leukemia
TK-10 renal = system: TK-10 renal
MDA-MB-231 breast = system: MDA-MB-231 breast
CCRF-CEM leukemia = system: CCRF-CEM leukemia
MDA-N = system: MDA-N

O=C(COC(=O)[C@H](C[Se][Se]C[C@H](NC(=O)c1ccc(Br)cc1F)C(=O)OCC(=O)c1ccc(F)cc1)NC(=O)c1ccc(Br)cc1F)c1ccc(F)cc1
GI50 (HT29 colon): 0.916 µM | TGI (HT29 colon): > 58.7 µM | GI50 (SK-MEL-28 melanoma): 0.631 µM | TGI (SK-MEL-28 melanoma): 1.63 µM | GI50 (ACHN renal): 1.65 µM | TGI (ACHN renal): 4.18 µM | GI50 (SF-268 CNS): 0.52 µM | TGI (SF-268 CNS): 1.18 µM | GI50 (HCT-15 colon): 1.34 µM | TGI (HCT-15 colon): 4.03 µM | GI50 (EKVX NSCLC): 0.517 µM | TGI (EKVX NSCLC): 1.52 µM | GI50 (OVCAR-3 ovarian): 0.479 µM | TGI (OVCAR-3 ovarian): 1.27 µM | GI50 (CAKI-1 renal): 0.716 µM | TGI (CAKI-1 renal): 2.66 µM | GI50 (COLO 205 colon): 1.67 µM | TGI (COLO 205 colon): 3.95 µM | GI50 (NCI-H522 lung): 2.2 µM | TGI (NCI-H522 lung): 4.38 µM | GI50 (UO-31 renal): 1.11 µM | TGI (UO-31 renal): 2.79 µM | GI50 (M14 melanoma): 1.08 µM | TGI (M14 melanoma): 2.9 µM | GI50 (786-0 renal): 0.9 µM | TGI (786-0 renal): 2.23 µM | GI50 (SK-MEL-2 melanoma): 1.66 µM | TGI (SK-MEL-2 melanoma): 4.74 µM | GI50 (PC-3 prostate): 0.375 µM | TGI (PC-3 prostate): 1.38 µM | GI50 (NCI/ADR-RES ovarian): 0.821 µM | TGI (NCI/ADR-RES ovarian): 2.39 µM | GI50 (KM12 colon): 0.301 µM | TGI (KM12 colon): 0.793 µM | GI50 (SNB-19 CNS): 0.444 µM | TGI (SNB-19 CNS): 1.63 µM | GI50 (A498 renal): 0.306 µM | TGI (A498 renal): 1.04 µM | GI50 (NCI-H226 lung): 1.02 µM | TGI (NCI-H226 lung): 3.63 µM | GI50 (MDA-MB-435): 1.89 µM | TGI (MDA-MB-435): 4.3 µM | GI50 (OVCAR-4 ovarian): 0.689 µM | TGI (OVCAR-4 ovarian): 1.54 µM | GI50 (OVCAR-5 ovarian): 0.951 µM | TGI (OVCAR-5 ovarian): 2.72 µM | GI50 (LOX IMVI melanoma): 1.48 µM | TGI (LOX IMVI melanoma): 3.67 µM | GI50 (T-47D breast): 1.41 µM | TGI (T-47D breast): 4.08 µM | GI50 (SF-295 CNS): 0.0511 µM | TGI (SF-295 CNS): 0.18 µM | GI50 (DU-145 prostate): 0.385 µM | TGI (DU-145 prostate): 1.08 µM | GI50 (BT-549 breast): 0.603 µM | TGI (BT-549 breast): 1.31 µM | GI50 (RPMI-8226 leukemia): 0.132 µM | TGI (RPMI-8226 leukemia): 0.593 µM | GI50 (MCF7 breast): 0.984 µM | TGI (MCF7 breast): 3.06 µM | GI50 (HOP-62 NSCLC): 0.654 µM | TGI (HOP-62 NSCLC): 2.24 µM | GI50 (UACC-62 melanoma): 1.69 µM | TGI (UACC-62 melanoma): 4.83 µM | GI50 (HOP-92 NSCLC): 2.73 µM | TGI (HOP-92 NSCLC): 6.66 µM | GI50 (HCC-2998 colon): 1.39 µM | TGI (HCC-2998 colon): 3.56 µM | GI50 (K-562 leukemia): 2.83 µM | TGI (K-562 leukemia): > 26.4 µM | GI50 (U251 CNS): 0.696 µM | TGI (U251 CNS): 1.92 µM | GI50 (IGROV1 ovarian): 1.35 µM | TGI (IGROV1 ovarian): 3 µM | GI50 (A549 NSCLC): 1.03 µM | TGI (A549 NSCLC): 4.45 µM | GI50 (SK-MEL-5 melanoma): 1.23 µM | TGI (SK-MEL-5 melanoma): 4.27 µM | GI50 (SF-539 CNS): 0.684 µM | TGI (SF-539 CNS): 1.8 µM | GI50 (NCI-H460 lung): 0.345 µM | TGI (NCI-H460 lung): 1.27 µM | GI50 (HS 578T breast): 0.298 µM | TGI (HS 578T breast): 1.31 µM | GI50 (MALME-3M melanoma): 0.639 µM | TGI (MALME-3M melanoma): 1.64 µM | GI50 (MOLT-4 leukemia): 3.54 µM | TGI (MOLT-4 leukemia): 71.3 µM | GI50 (HCT-116 colon): 1.02 µM | TGI (HCT-116 colon): 3.52 µM | GI50 (SNB-75 CNS): 0.354 µM | TGI (SNB-75 CNS): 0.964 µM | GI50 (OVCAR-8 ovarian): 0.408 µM | TGI (OVCAR-8 ovarian): 1.61 µM | GI50 (SN12C renal): 1.27 µM | TGI (SN12C renal): 2.98 µM | GI50 (RXF 393 renal): 0.422 µM | TGI (RXF 393 renal): 1.5 µM | GI50 (SK-OV-3 ovarian): 0.415 µM | TGI (SK-OV-3 ovarian): 1.31 µM | GI50 (SW-620 colon): 0.878 µM | TGI (SW-620 colon): 2.43 µM | GI50 (NCI-H23 lung): 0.692 µM | TGI (NCI-H23 lung): 2.7 µM | GI50 (UACC-257 melanoma): 1.82 µM | TGI (UACC-257 melanoma): 4.39 µM | GI50 (SR leukemia): 0.92 µM | TGI (SR leukemia): > 43.5 µM | GI50 (HL-60(TB) leukemia): 0.425 µM | TGI (HL-60(TB) leukemia): > 100 µM | GI50 (TK-10 renal): 0.341 µM | TGI (TK-10 renal): 0.9 µM | GI50 (MDA-MB-231 breast): 1.65 µM | TGI (MDA-MB-231 breast): 4.03 µM

CCN(CCCl)c1ccc(NC(=O)c2cc(C(=O)NCCN(C)C)cc(C(=O)Nc3ccc(N(CC)CCCl)cc3)c2)cc1
TGI (HT29 colon): 11.8 µM | TGI (SK-MEL-28 melanoma): 41.4 µM | TGI (ACHN renal): 21.3 µM | TGI (SF-268 CNS): 61.2 µM | TGI (HCT-15 colon): > 100 µM | TGI (CAKI-1 renal): > 100 µM | TGI (NCI-H522 lung): 11.4 µM | TGI (UO-31 renal): > 100 µM | TGI (M14 melanoma): 28.2 µM | TGI (786-0 renal): 3.12 µM | TGI (SK-MEL-2 melanoma): 44.1 µM | TGI (PC-3 prostate): 16.3 µM | TGI (NCI/ADR-RES ovarian): > 100 µM | TGI (CCRF-CEM leukemia): 3.27 µM | TGI (KM12 colon): 25.4 µM | TGI (SNB-19 CNS): 19.9 µM | TGI (A498 renal): 43.1 µM | TGI (NCI-H226 lung): 25.1 µM | TGI (MDA-MB-435): 33.9 µM | TGI (OVCAR-4 ovarian): 43.5 µM | TGI (OVCAR-5 ovarian): 87.1 µM | TGI (LOX IMVI melanoma): 12.8 µM | TGI (T-47D breast): 53.9 µM | TGI (SF-295 CNS): 72.3 µM | TGI (DU-145 prostate): 39.2 µM | TGI (RPMI-8226 leukemia): 23.6 µM | TGI (MCF7 breast): 19.6 µM | TGI (HOP-62 NSCLC): 16.4 µM | TGI (MDA-N): 29.6 µM | TGI (UACC-62 melanoma): 27.5 µM | TGI (HOP-92 NSCLC): 29.8 µM | TGI (HCC-2998 colon): 35 µM | TGI (U251 CNS): 22.1 µM | TGI (IGROV1 ovarian): 29.1 µM | TGI (A549 NSCLC): 25.7 µM | TGI (SK-MEL-5 melanoma): 30.7 µM | TGI (SF-539 CNS): 12.3 µM | TGI (NCI-H460 lung): 28 µM | TGI (HS 578T breast): 12.4 µM | TGI (MALME-3M melanoma): 34.5 µM | TGI (MOLT-4 leukemia): 5.99 µM | TGI (HCT-116 colon): 22.3 µM | TGI (SNB-75 CNS): 69.6 µM | TGI (OVCAR-8 ovarian): 25.2 µM | TGI (SN12C renal): 21 µM | TGI (RXF 393 renal): 30.8 µM | TGI (SK-OV-3 ovarian): 19.5 µM | TGI (SW-620 colon): 18 µM | TGI (NCI-H23 lung): 23.5 µM | TGI (UACC-257 melanoma): 65.6 µM | TGI (SR leukemia): > 100 µM | TGI (HL-60(TB) leukemia): 3.19 µM | TGI (TK-10 renal): 38 µM | TGI (MDA-MB-231 breast): 34.9 µM
